Measured values reported in ChEMBL document CHEMBL3817726, “Chemically Diverse Group I p21-Activated Kinase (PAK) Inhibitors Impart Acute Cardiovascular Toxicity with a Narrow Therapeutic Window” (J Med Chem, 2016).
In brackets after ≈: the same amount, converted by molar mass.

Experiments:
[1] = Efflux ratio of permeability across basolateral to apical side over apical to basolateral side in MDCK cells at 10 uM after 60 mins; type: ADME, cell-based, Canis lupus familiaris; settings: dog
[2] = Lipophilicity, log D of the compound at pH 7.4; type: physicochemical; settings: buffer
[3] = species on record: Homo sapiens; experiment: Selectivity for human recombinant N-terminal 6-His-tagged PAK1 kinase domain (249 to 545 residues) over LCK (unknown origin)
[4] = Apparent permeability across apical to basolateral side in MDCK cells at 10 uM after 60 mins; type: ADME, cell-based, Canis lupus familiaris; settings: dog
[5] = target: Serine/threonine-protein kinase PAK 1/PAK 2 (Homo sapiens, UniProt Q13177+Q13153); experiment: Inhibition of PAK1/2 in human EBC1 cells assessed as phosphorylation of MEK1 at serine 298 after 2 hrs by HTRF assay; type: cell-based
[6] = target: Serine/threonine-protein kinase PAK 1 (Homo sapiens, UniProt Q13153); experiment: Inhibition of human recombinant N-terminal 6-His-tagged PAK1 kinase domain (249 to 545 residues) expressed in Escherichia coli BL21(DE3) assessed as phosphorylation of coumarin labeled FRET peptide substrate at Ser/Thr19 preincubated for 10 mins followed by ATP addition measured after 60 mins by Z'-LYTE assay
[7] = Kinetic solubility of the compound at pH 7.4; type: physicochemical; settings: buffer, read-out: Kinetic_solubility
[8] = species on record: Homo sapiens; experiment: Selectivity for human recombinant N-terminal 6-His-tagged PAK1 kinase domain (249 to 545 residues) over human recombinant PAK4 kinase domain
[9] = Apparent permeability across basolateral to apical side in MDCK cells at 10 uM after 60 mins; type: ADME, cell-based, Canis lupus familiaris; settings: dog

Sequence of Serine/threonine-protein kinase PAK 1 (Q13153 whole entry, the tested form may be a part): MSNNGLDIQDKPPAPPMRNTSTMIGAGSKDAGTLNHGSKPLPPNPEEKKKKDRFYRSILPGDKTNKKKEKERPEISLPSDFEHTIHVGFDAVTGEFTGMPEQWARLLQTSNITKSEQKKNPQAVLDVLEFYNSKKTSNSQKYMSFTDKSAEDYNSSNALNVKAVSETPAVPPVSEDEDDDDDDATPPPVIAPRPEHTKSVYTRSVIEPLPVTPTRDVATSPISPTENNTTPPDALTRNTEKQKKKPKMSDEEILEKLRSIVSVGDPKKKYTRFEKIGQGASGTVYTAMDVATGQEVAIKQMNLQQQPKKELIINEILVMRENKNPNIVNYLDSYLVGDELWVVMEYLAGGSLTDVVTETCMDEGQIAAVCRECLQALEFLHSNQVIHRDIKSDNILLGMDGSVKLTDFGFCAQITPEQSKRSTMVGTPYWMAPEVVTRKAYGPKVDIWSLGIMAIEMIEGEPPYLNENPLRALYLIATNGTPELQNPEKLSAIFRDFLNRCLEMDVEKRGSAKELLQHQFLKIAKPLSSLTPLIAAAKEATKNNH

With `CNc1ncc2cc(-c3ccc(-n4cccc(C)c4=O)cc3Cl)c(=O)n(CCOC)c2n1` the efflux ratio at 1 h, 10 µM [1] was 0.5, the logD [2] was 2.2 and the Selectivity ratio [3] was 38. The Papp A→B at 1 h, 10 µM [4] was 27 ×10⁻⁶ cm/s, the IC50 [5] was 450 nM and the Ki [6] was 13 nM. For the same molecule, the solubility kinetic [7] was 80 µM (≈ 36.2 µg/mL).
`CNc1ncc2cc(-c3ccccc3Cl)c(=O)n(CCCN)c2n1` showed a Selectivity ratio [3] of 0.4, a Ki [6] of 382 nM and a Selectivity ratio [8] of over 7.6.
With `CNc1ncc2cc(-c3ccc(-n4cccc(C)c4=O)cc3Cl)c(=O)n(CCCN)c2n1` the Papp B→A at 1 h, 10 µM [9] was 0.33 ×10⁻⁶ cm/s, the efflux ratio at 1 h, 10 µM [1] was 4.3 and the logD [2] was 0.05. The Selectivity ratio [3] was 221, the Papp A→B at 1 h, 10 µM [4] was 0.1 ×10⁻⁶ cm/s and the IC50 [5] was 602 nM. For the same molecule, the Ki [6] was 3.5 nM, the Selectivity ratio [8] was 517 and the solubility kinetic [7] was 82 µM (≈ 37 µg/mL).
Molecule `CNc1ncc2cc(-c3ccc(-n4cccc(C)c4=O)cc3Cl)c(=O)n(CCO)c2n1` has an efflux ratio at 1 h, 10 µM [1] of 2.8, a logD [2] of 2.2 and a Selectivity ratio [3] of 63. The Papp A→B at 1 h, 10 µM [4] was 5.5 ×10⁻⁶ cm/s, the IC50 [5] was 930 nM and the Ki [6] was 17 nM. It also gave a solubility kinetic [7] of 15 µM (≈ 6.57 µg/mL).
Work on `CNc1ncc2cc(-c3ccc(N4CCCC4=O)cc3Cl)c(=O)n(CCCN)c2n1` yielded a Selectivity ratio [3] of 25, a Ki [6] of 89 nM and a Selectivity ratio [8] of over 33.
`CNc1ncc2cc(-c3ccc(N4CCN(C)C4=O)cc3Cl)c(=O)n(CCCN)c2n1` gave a Selectivity ratio [3] of 10 and a Selectivity ratio [8] of over 52.
Work on `CNc1ncc2cc(-c3ccc(-n4cccc(C)c4=O)cc3Cl)c(=O)n(CCOC3CN(C)C3)c2n1` yielded an efflux ratio at 1 h, 10 µM [1] of 26, a logD [2] of 0.63 and a Selectivity ratio [3] of 86. The Papp A→B at 1 h, 10 µM [4] was 0.2 ×10⁻⁶ cm/s, the IC50 [5] was 88 nM and the Ki [6] was 4.4 nM. For the same molecule, the solubility kinetic [7] was 71 µM (≈ 36 µg/mL).
For `CNc1ncc2cc(-c3ccc(-c4cccc(C)n4)cc3Cl)c(=O)n(CCCN)c2n1`, the Selectivity ratio [3] was 53, the Ki [6] was 3.3 nM and the Selectivity ratio [8] was 449.
With `CNc1ncc2cc(-c3ccc(-n4cccc(C)c4=O)cc3Cl)c(=O)n(CC3CCNCC3(F)F)c2n1` (racemic) the efflux ratio at 1 h, 10 µM [1] was 1.3, the logD [2] was 0.9 and the Selectivity ratio [3] was 20. It also gave a Papp A→B at 1 h, 10 µM [4] of 9.7 ×10⁻⁶ cm/s, an IC50 [5] of 78 nM and a Ki [6] of 2.7 nM. For the same molecule, the solubility kinetic [7] was 115 µM (≈ 60.6 µg/mL).
With `CNc1ncc2cc(-c3ccc(-n4ccccc4=O)cc3Cl)c(=O)n(CCCN)c2n1` the Selectivity ratio [3] was 86, the Ki [6] was 36 nM and the Selectivity ratio [8] was over 82.
`CNc1ncc2cc(-c3ccc(-n4ccnc(C)c4=O)cc3Cl)c(=O)n(CCCN)c2n1` showed a Selectivity ratio [3] of 429, a Ki [6] of 4.6 nM and a Selectivity ratio [8] of over 642.
For `CNc1ncc2cc(-c3ccc(-n4cncc(C)c4=O)cc3Cl)c(=O)n(CCCN)c2n1`, the Selectivity ratio [3] was 282, the Ki [6] was 6.7 nM and the Selectivity ratio [8] was over 443.
`Cc1nccn(-c2ccc(-c3cc4cnc(NC5COC5)nc4n(CC4CCNCC4(F)F)c3=O)c(Cl)c2)c1=O` (single isomer, unassigned; enantiomer 2) showed a Ki [6] of 12 nM.
Work on `CNc1ncc2cc(-c3ccc(-n4ccn(C)c4=O)cc3Cl)c(=O)n(CCCN)c2n1` yielded a Selectivity ratio [3] of 76, a Ki [6] of 13 nM and a Selectivity ratio [8] of over 232.
`CNc1ncc2cc(-c3ccc(-n4cccc(C)c4=O)cc3Cl)c(=O)n(CC(F)(F)CN)c2n1` gave a Papp B→A at 1 h, 10 µM [9] of 15.4 ×10⁻⁶ cm/s, an efflux ratio at 1 h, 10 µM [1] of 1.8 and a logD [2] of 1.8. The Selectivity ratio [3] was 56, the Papp A→B at 1 h, 10 µM [4] was 8.4 ×10⁻⁶ cm/s and the IC50 [5] was 460 nM. For the same molecule, the Ki [6] was 9 nM and the solubility kinetic [7] was 51 µM (≈ 24.8 µg/mL).
For `COCCn1c(=O)c(-c2ccc(-n3cccc(C)c3=O)cc2Cl)cc2cnc(NC3COC3)nc21`, the efflux ratio at 1 h, 10 µM [1] was 2, the logD [2] was 1.9 and the Selectivity ratio [3] was 158. It also gave a Papp A→B at 1 h, 10 µM [4] of 7.6 ×10⁻⁶ cm/s, an IC50 [5] of 290 nM and a Ki [6] of 5.9 nM. The solubility kinetic [7] was 38 µM (≈ 18.8 µg/mL).
For `CCn1c(=O)c(-c2ccc(-n3cccc(C)c3=O)cc2Cl)cc2cnc(NC)nc21`, the efflux ratio at 1 h, 10 µM [1] was 0.4, the logD [2] was 2.1 and the Selectivity ratio [3] was 53. For the same molecule, the Papp A→B at 1 h, 10 µM [4] was 28 ×10⁻⁶ cm/s, the IC50 [5] was 340 nM and the Ki [6] was 8 nM. It also gave a solubility kinetic [7] of 2.5 µM (≈ 1.05 µg/mL).
